From ChEMBL document CHEMBL5506024, “Multitarget μ-Opioid Receptor Agonists─Neuropeptide FF Receptor Antagonists Induce Potent Antinociception with Reduced Adverse Side Effects” (J Med Chem, 2024)
pEC50, pKi: −log10 of the molar value. Active and inactive are the calls of the source. The rule behind the calls is not given here.

Tests used:
[1] = Induction of naltrexone-precipitated withdrawal syndrome in sc dosed C57BL/6N mouse assessed as high jumping score administered for 8 days followed by naltrexone addition on day 9 after 2 hrs post last dose and measured after 30 mins; assay type: toxicity, organism-based; conditions: in vivo, 216.5 h, time 12990 min
[2] = biological target: T1, Neuropeptide FF receptor 1 (Homo sapiens, UniProt Q9GZQ6); assay: Displacement of [125I]-1DMeNPFF from human NPFFR1 expressed in CHO cell membrane at 0.5 uM incubated for 1 hr by Topcount counting method relative to control; assay type: cell membranes
T1 sequence (Q9GZQ6 whole entry): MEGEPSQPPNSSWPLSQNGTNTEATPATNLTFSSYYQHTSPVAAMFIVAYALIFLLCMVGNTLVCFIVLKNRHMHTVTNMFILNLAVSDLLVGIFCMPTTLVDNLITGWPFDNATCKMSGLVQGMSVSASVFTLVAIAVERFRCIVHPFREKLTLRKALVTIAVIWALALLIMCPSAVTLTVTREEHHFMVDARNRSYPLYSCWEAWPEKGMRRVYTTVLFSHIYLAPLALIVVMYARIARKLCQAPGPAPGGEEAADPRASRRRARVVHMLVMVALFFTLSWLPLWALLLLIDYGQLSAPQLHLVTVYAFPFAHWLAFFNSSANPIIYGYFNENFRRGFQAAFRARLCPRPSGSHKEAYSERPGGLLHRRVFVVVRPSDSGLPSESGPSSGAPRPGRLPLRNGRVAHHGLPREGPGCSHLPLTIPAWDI

Mus musculus [3] = assay: Antinociceptive activity in mouse at 4.2 umol/kg, sc administered chronically and measured on day 8; assay type: functional, organism-based; conditions: dose 4.2 µmol/kg
[4] = biological target: T1, Neuropeptide FF receptor 1; assay: Displacement of [125I]-1DMeNPFF from human NPFFR1 expressed in CHO cell membrane incubated for 1 hr by Topcount counting method; assay type: cell membranes
Mus musculus [5] = assay: Antinociceptive activity in mouse at 2.5 to 10 mg/kg, sc measured after 24 hrs by tail immersion test; assay type: functional, organism-based; conditions: dose 2.5-10 mg/kg
[6] = Induction of naltrexone-precipitated withdrawal syndrome in sc dosed C57BL/6N mouse assessed as diarrhea administered for 8 days followed by naltrexone addition on day 9 after 2 hrs post last dose and measured after 30 mins; assay type: toxicity, organism-based; conditions: in vivo, 216.5 h, time 12990 min
[7] = biological target: Delta-type opioid receptor (Homo sapiens) (UniProt P41143); assay: Agonist activity at human DOP expressed in HEK293 cells assessed as inhibition of forskolin-induced cAMP accumulation; assay type: functional, cell-based; conditions: filed as agonist
Chain of Delta-type opioid receptor (Homo sapiens) (P41143 whole entry): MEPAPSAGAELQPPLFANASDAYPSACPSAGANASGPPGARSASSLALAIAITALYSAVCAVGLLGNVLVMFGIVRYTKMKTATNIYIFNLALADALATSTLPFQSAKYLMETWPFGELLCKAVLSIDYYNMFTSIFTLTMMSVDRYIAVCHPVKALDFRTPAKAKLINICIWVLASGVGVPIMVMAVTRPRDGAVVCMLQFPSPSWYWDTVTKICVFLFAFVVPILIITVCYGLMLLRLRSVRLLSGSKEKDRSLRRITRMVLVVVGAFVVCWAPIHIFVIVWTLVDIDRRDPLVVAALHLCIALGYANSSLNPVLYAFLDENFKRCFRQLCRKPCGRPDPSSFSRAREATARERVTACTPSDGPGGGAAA

[8] = biological target: T2, Prolactin-releasing peptide receptor (Homo sapiens) (UniProt P49683); assay: Agonist activity at human GPR10 expressed in CHO cells assessed as intracellular calcium release upto 10 uM by Fluo-4 AM dye based calcium mobilization assay; assay type: functional, cell-based
T2 sequence (whole entry): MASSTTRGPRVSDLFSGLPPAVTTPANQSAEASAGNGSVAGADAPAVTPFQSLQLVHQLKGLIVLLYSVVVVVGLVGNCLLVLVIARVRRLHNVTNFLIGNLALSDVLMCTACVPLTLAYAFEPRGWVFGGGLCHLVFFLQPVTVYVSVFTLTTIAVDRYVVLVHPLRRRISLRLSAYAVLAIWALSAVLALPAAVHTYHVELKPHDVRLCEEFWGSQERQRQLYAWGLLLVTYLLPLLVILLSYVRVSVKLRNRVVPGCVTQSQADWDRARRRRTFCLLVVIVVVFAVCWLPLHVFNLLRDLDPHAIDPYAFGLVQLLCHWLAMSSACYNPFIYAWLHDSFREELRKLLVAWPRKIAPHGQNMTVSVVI

[9] = biological target: T3, Neuropeptide FF receptor 2 (Homo sapiens, UniProt Q9Y5X5); assay: Displacement of [125I]-1DMeNPFF from human NPFFR2 expressed in CHO cell membrane at 0.05 uM incubated for 1 hr by Topcount counting method relative to control; assay type: cell membranes; conditions: filed as antagonist
T3 sequence (Q9Y5X5 whole entry): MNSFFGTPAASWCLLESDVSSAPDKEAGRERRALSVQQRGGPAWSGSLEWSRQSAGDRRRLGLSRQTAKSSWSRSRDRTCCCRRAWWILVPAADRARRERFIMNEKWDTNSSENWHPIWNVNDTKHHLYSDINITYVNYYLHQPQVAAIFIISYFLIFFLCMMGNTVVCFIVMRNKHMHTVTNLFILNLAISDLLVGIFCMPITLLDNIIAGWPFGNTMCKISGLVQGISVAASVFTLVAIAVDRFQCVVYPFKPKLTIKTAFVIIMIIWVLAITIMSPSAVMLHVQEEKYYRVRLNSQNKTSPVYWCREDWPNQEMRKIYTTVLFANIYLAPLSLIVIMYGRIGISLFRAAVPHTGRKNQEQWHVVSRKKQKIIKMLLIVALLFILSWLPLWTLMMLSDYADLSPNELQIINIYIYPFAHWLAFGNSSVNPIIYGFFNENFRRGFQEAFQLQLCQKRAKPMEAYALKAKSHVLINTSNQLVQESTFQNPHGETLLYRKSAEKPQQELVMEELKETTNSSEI

[10] = Cmax in mouse at 10 mg/kg, sc measured upto 24 hrs by LC-MS/MS analysis; assay type: ADME, organism-based; conditions: in vivo
Mus musculus [11] = assay: Antinociceptive activity in mouse at 4.2 umol/kg, sc administered chronically and measured on day 1; assay type: functional, organism-based; conditions: dose 4.2 µmol/kg
[12] = Induction of naltrexone-precipitated withdrawal syndrome in sc dosed C57BL/6N mouse assessed as paw tremor administered for 8 days followed by naltrexone addition on day 9 after 2 hrs post last dose and measured after 30 mins; assay type: toxicity, organism-based; conditions: in vivo, 216.5 h, time 12990 min
Mu-type opioid receptor [13] = biological target: T4, Mu-type opioid receptor (Homo sapiens, UniProt P35372); assay: Agonist activity at human MOP expressed in HEK293 cells coexpressing GloSensor-20F assessed as inhibition of forskolin-induced cAMP accumulation relative to control; assay type: functional, cell-based; conditions: filed as agonist
T4 sequence (P35372 whole entry): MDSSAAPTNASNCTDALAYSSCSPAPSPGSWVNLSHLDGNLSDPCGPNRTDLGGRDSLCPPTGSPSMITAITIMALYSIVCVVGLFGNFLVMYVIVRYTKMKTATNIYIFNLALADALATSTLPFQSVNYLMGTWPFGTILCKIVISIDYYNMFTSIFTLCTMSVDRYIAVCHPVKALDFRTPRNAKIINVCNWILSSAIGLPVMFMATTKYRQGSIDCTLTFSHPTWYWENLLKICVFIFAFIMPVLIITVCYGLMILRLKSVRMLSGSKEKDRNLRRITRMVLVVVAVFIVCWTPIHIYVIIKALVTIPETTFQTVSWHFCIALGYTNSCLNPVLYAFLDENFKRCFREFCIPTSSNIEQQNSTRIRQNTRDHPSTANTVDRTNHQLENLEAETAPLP

[14] = biological target: T3, Neuropeptide FF receptor 2; assay: Antagonist potency at human NPFFR2 expressed in CHO cell membrane assessed as inhibition of NPVF induced cAMP response incubated for 1 hr by Topcount counting method; assay type: functional, cell membranes; conditions: read-out: pA2 (converted)
Mus musculus [15] = assay: Antinociceptive activity in mouse at 2.5 to 10 mg/kg, sc measured after 6 hrs by tail immersion test; assay type: functional, organism-based; conditions: dose 2.5-10 mg/kg
[16] = biological target: T3, Neuropeptide FF receptor 2; assay: Antagonist activity at human NPFFR2 expressed in CHO cell membrane assessed as inhibition of NPVF induced cAMP response at 5 uM incubated for 1 hr by Topcount counting method relative to control; assay type: functional, cell membranes; set-up: scale not given: the % may be the effect or the level left; conditions: filed as antagonist
[17] = Half life in mouse at 10 mg/kg, sc measured upto 24 hrs by LC-MS/MS analysis; assay type: ADME, organism-based; conditions: in vivo
[18] = biological target: T1, Neuropeptide FF receptor 1; assay: Antagonist potency at human NPFFR1 expressed in CHO cell membrane assessed as inhibition of NPVF induced cAMP response incubated for 1 hr by Topcount counting method; assay type: functional, cell membranes; conditions: read-out: pA2 (converted)
[19] = biological target: KiSS-1 receptor (Homo sapiens) (UniProt Q969F8); assay: Agonist activity at human GPR54 expressed in CHO cells assessed as intracellular calcium release upto 10 uM by Fluo-4 AM dye based calcium mobilization assay; assay type: functional, cell-based
Chain of KiSS-1 receptor (Homo sapiens) (Q969F8 whole entry): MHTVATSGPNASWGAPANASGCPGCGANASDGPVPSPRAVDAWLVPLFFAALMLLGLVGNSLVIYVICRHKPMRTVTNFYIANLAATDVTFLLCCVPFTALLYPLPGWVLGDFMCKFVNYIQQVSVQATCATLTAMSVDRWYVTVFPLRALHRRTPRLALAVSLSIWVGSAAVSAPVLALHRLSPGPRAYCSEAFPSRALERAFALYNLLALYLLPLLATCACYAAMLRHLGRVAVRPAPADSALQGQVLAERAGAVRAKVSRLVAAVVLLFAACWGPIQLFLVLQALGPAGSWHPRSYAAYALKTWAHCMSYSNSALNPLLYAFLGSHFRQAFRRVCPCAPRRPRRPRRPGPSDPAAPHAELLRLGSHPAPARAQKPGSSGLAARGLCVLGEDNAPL

[20] = Tmax in mouse at 10 mg/kg, sc measured upto 24 hrs by LC-MS/MS analysis; assay type: ADME, organism-based; conditions: in vivo
[21] = biological target: Nociceptin receptor (Homo sapiens) (UniProt P41146); assay: Antagonist activity at human NOR expressed in HEK293 cells assessed as forskolin-induced cAMP accumulation in presence of IBMX; assay type: functional, cell-based; conditions: filed as antagonist
Chain of Nociceptin receptor (Homo sapiens) (P41146 whole entry): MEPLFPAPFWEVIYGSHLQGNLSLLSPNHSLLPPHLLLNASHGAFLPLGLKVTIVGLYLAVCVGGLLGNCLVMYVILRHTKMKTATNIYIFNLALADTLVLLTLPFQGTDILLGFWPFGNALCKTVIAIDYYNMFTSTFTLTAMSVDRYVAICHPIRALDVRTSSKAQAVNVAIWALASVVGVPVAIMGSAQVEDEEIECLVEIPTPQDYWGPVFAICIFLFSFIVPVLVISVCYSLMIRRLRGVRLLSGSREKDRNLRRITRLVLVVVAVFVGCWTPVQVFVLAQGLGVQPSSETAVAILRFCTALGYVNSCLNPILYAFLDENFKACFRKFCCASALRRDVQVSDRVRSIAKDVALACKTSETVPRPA

[22] = Induction of naltrexone-precipitated withdrawal syndrome in sc dosed C57BL/6N mouse assessed as wet dog shake counts administered for 8 days followed by naltrexone addition on day 9 after 2 hrs post last dose and measured after 30 mins; assay type: toxicity, organism-based; conditions: in vivo, 216.5 h, time 12990 min
Mu-type opioid receptor [23] = biological target: T4, Mu-type opioid receptor; assay: Agonist activity at human MOP expressed in HEK293 cells coexpressing GloSensor-20F assessed as inhibition of forskolin-induced cAMP accumulation; assay type: functional, cell-based
[24] = biological target: T1, Neuropeptide FF receptor 1; assay: Antagonist activity at human NPFFR1 expressed in CHO cell membrane assessed as inhibition of NPVF induced cAMP response at 5 uM incubated for 1 hr by Topcount counting method relative to control; assay type: functional, cell membranes; set-up: scale not given: the % may be the effect or the level left
[25] = biological target: KiSS-1 receptor (Homo sapiens) (UniProt Q969F8); assay: Antagonist activity at human GPR54 expressed in CHO cells assessed as intracellular calcium release upto 10 uM by Fluo-4 AM dye based calcium mobilization assay; assay type: functional, cell-based
[26] = biological target: T5, Pyroglutamylated RF-amide peptide receptor (Homo sapiens) (UniProt Q96P65); assay: Antagonist activity at human GPR103 expressed in CHO cells assessed as intracellular calcium release upto 10 uM by Fluo-4 AM dye based calcium mobilization assay; assay type: functional, cell-based
T5 sequence (whole entry): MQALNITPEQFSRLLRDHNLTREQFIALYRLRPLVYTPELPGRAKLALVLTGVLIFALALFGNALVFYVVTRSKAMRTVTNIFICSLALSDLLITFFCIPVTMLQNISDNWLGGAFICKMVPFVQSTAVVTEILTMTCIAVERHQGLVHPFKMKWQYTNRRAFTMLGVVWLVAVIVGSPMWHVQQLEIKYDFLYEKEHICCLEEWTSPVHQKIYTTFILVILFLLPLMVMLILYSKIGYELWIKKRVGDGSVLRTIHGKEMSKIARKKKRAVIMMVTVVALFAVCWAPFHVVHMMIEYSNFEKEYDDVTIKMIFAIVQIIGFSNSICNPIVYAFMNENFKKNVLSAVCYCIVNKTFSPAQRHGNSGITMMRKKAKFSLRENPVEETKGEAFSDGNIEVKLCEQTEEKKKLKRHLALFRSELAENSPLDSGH

Mus musculus [27] = assay: Antinociceptive activity in mouse at 4.2 umol/kg, sc administered daily and measured on day 1 and 8; assay type: functional, organism-based; conditions: dose 4.2 µmol/kg
[28] = biological target: T3, Neuropeptide FF receptor 2; assay: Displacement of [125I]-1DMeNPFF from human NPFFR2 expressed in CHO cell membrane incubated for 1 hr by Topcount counting method; assay type: cell membranes
[29] = Toxicity in C57BL/6N mouse assessed as induction of respiratory depression by measuring decrease in pulmonary rate at 3.2 to 31.8 mg/kg, sc by plethysmography; assay type: organism-based; conditions: in vivo, dose 3.2-31.8 mg/kg
[30] = Drug concentration in mouse plasma at 10 mg/kg, sc measured after 2 hrs by LC-MS/MS analysis; assay type: ADME, organism-based
[31] = biological target: Kappa-type opioid receptor (Homo sapiens, UniProt P41145); assay: Partial agonist activity at human KOR expressed in HEK293 cells assessed as forskolin-induced cAMP accumulation in presence of IBMX; assay type: functional, cell-based; conditions: filed as partial agonist
Chain of Kappa-type opioid receptor (P41145 whole entry): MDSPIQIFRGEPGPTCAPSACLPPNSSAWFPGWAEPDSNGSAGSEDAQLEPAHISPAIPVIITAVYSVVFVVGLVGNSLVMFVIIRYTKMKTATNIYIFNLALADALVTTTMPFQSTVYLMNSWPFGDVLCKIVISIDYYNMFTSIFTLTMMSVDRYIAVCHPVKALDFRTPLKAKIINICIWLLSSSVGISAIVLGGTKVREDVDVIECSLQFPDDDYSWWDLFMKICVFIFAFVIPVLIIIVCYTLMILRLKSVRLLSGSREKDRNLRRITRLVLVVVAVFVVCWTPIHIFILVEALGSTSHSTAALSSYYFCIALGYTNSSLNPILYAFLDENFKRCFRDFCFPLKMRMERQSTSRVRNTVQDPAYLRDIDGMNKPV

[32] = Induction of motor coordination impairment in C57BL/6 mouse at 10.5 mg/kg, sc by rotarod assay; assay type: toxicity, organism-based; conditions: in vivo
Mu-type opioid receptor [33] = biological target: T4, Mu-type opioid receptor; assay: Agonist activity at human Rluc8-tagged MOP expressed in HEK293 cells coexpressing eYFP-tagged beta-arrestin-2 assessed as beta-arrestin-2 recruitment incubated for 5 mins by luminometer analysis relative to control; assay type: functional, cell-based
Mu-type opioid receptor [34] = biological target: T4, Mu-type opioid receptor; assay: Agonist activity at human Rluc8-tagged MOP expressed in HEK293 cells coexpressing eYFP-tagged beta-arrestin-2 assessed as beta-arrestin-2 recruitment incubated for 5 mins by luminometer analysis; assay type: functional, cell-based; conditions: read-out: EC50
[35] = biological target: T2, Prolactin-releasing peptide receptor (Homo sapiens); assay: Antagonist activity at human GPR10 expressed in CHO cells assessed as intracellular calcium release upto 10 uM by Fluo-4 AM dye based calcium mobilization assay; assay type: functional, cell-based
[36] = biological target: T5, Pyroglutamylated RF-amide peptide receptor (Homo sapiens); assay: Agonist activity at human GPR103 expressed in CHO cells assessed as intracellular calcium release upto 10 uM by Fluo-4 AM dye based calcium mobilization assay; assay type: functional, cell-based

Cc1cc(O)cc(C)c1C[C@H](N)C(=O)N(C)[C@H](C)C(=O)N[C@H]1Cc2c(ccc3ccccc23)CN(CCC(=O)N[C@@H](CCCN2CCC(Cc3ccccc3)CC2)C(=O)N[C@@H](Cc2ccccc2)C(N)=O)C1=O
Activity [1]: Non-Toxic | Activity [2]: 19% | Activity (Mus musculus [3]): inactive | pKi [4]: 5.88 | Activity (Mus musculus [5]): Active | Activity [6]: Non-Toxic | Activity [7]: Active | Activity [8]: inactive | Activity [9]: 57% | Cmax [10]: 805 nM | Activity (Mus musculus [11]): Active | Activity [12]: Non-Toxic | Emax (Mu-type opioid receptor [13]): 75% | Kb [14]: 0.0457 µM | Activity (Mus musculus [15]): Active | Activity [16]: 83% | half-life [17]: 3.3 h | Kb [18]: 2.45 µM | Activity [19]: inactive | Tmax [20]: 2.33 h | Activity [21]: Active | Activity [22]: Non-Toxic | pEC50 (Mu-type opioid receptor [23]): 8.35 | Activity [24]: 26% | Activity [25]: inactive | Activity [26]: inactive | Activity (Mus musculus [27]): Active | pKi [28]: 7.49 | Activity [29]: Non-Toxic | concentration at 2 h [30]: 837 nM | Activity [31]: Active | Activity [32]: Non-Toxic | Emax (Mu-type opioid receptor [33]): 24% | pEC50 (Mu-type opioid receptor [34]): < 5.40 | Activity [35]: inactive | Activity [36]: inactive
